Here are results for 23 compounds from patent US5336485A, “Method for protecting animals against tacrine induced cytotoxic injury using sterol compounds” (priority 1993, dated 1994).

The subject of the test is liver. Put plainly: CCl4 induced hepatotoxicity in rats (serum AST/ALT). Conditions: for protection against CCl4 hepatotoxicity (in words): rats, serum enzyme levels. Type of test: in vivo, rat. The protocol: In vivo experiments were performed to determine if alpha-TS administration protects the liver from chemical toxicity. The liver is the target organ for CCl4. CCl4 is a hepatotoxic agent that induces centrilobular liver necrosis through its metabolism to free radicals. Male Sprague-Dawley rats were given an intraperitoneal dose (100 mg/kg) of a tocopherol analog 24 hours prior to a CCl4 challenge (2.9g/kg given by oral garage). Forty eight hours after the challenge, the rats were sacrificed and the levels of aspartate aminotransferase (AST) and alanine aminotransferase (ALT) were measured.
As discussed above, SGOT levels provide a clinical assessment of hepatotoxicity (liver damage).
Succinate analogs were administered to male Sprague-Dawley rats 20 hours prior to a 1 g CCl4 /kg body weight oral challenge and the AST and ALT serum enzyme levels were measured 48 hours after the challenge.
Similar to the experiments were described above, the ionizable congeners were administered to Sprague-Dawley rats by i.p. injection of a 100 mg ionizable congener/kg body weight dose 20 hours prior to oral administration of a 1 g/kg dose of CCl4, and the AST and ALT levels were measured 48 hours after the CCl4 challenge.

Setting [1] is: 100 mg/kg ip, 48 h after 1 g/kg CCl4 (Table 31).
The mark [2] stands for this setting: 100 mg/kg ip, 48 h after 1 g/kg CCl4 (Table 33).
[3] abbreviates: Rattus norvegicus, ip, 48 h, read-out: % Hepatoprotection.
The mark [4] stands for this setting: 100 mg/kg ip, PEG 400 vehicle, 48 h after 1 g/kg CCl4 (Table 34).
Setting [5] is: 100 mg/kg ip, peanut oil vehicle, 48 h after 1 g/kg CCl4 (Table 39).
[6] abbreviates: 100 mg/kg ip, 48 h after 1 g/kg CCl4 (Table 37).
Where [7] appears, read: 20 h prior, 48 h after 1 g/kg CCl4 (Table 36).
Setting [8] is: 100 mg/kg ip, 48 h after 1 g/kg CCl4 (Table 38).
Setting [9] is: 100 mg/kg ip, 48 h after 1 g/kg CCl4 (Table 40).
The mark [10] stands for this setting: 100 mg/kg ip, 48 h after 1 g/kg CCl4 (Table 42).
Setting [11] is: Rattus norvegicus, 100 mg/kg ip 20 h prior, 48 h after 1 g/kg CCl4, read-out: % Hepatoprotection.
Setting [12] is: 100 mg/kg ip (dihydrocholesterol 80 + sodium sulfate 30 mg/kg), 48 h after 1 g/kg CCl4 (Table 35).
[13] abbreviates: 50 mg/kg ip, 48 h after 1 g/kg CCl4 (Table 41).

Where a name gives a salt, the structure may show the parent alone. Read-outs that look alike come from different tables or passages of the source.

Regarding `CC(=O)O[C@H]1CC[C@@]2(C)C(=CC[C@H]3[C@@H]4CC[C@H]([C@H](C)CCCC(C)C)[C@@]4(C)CC[C@@H]32)C1` [Cholesterol acetate, reference compound], the “protection against CCl4 hepatotoxicity (in words)” value (“protection” for short) is listed as “provided no protection”. In addition, under setting [1], the ALT is listed as 0.96 ± 0.32 10^3 units/L and the AST is recorded as 3.06 ± 1.06 10^3 units/L.

With `CC(C)CCC[C@@H](C)[C@H]1CC[C@H]2[C@@H]3CC=C4C[C@@H](OS(=O)(=O)O)CC[C@]4(C)[C@H]3CC[C@]12C` [Cholesteryl 3-sulfate, sodium salt], the “protection” value is “potent cytoprotective agents in vivo”. Under setting [2], the ALT is 0.240 ± .133 10^3 units/L and the AST is recorded as 0.86 ± 0.35 10^3 units/L. Also, the inhibition in vivo at 100 mg/kg under setting [3] is 90%.

For `CC(C)CCC[C@@H](C)[C@H]1CC[C@H]2[C@@H]3CC=C4C[C@@H](OC(=O)c5ccccc5C(=O)O)CC[C@]4(C)[C@H]3CC[C@]12C` [Cholesteryl hydrogen phthalate], the “protection” value is “potent cytoprotective agents in vivo”. Besides, under setting [4], the ALT is 0.06 ± 0.03 10^3 units/L and the AST is recorded as 0.30 ± 0.12 10^3 units/L. Under setting [3], the inhibition in vivo at 100 mg/kg came out at 100%.

With `C[C@]12CC[C@H](OC(=O)CCC(=O)O)CC1=CC[C@@H]1[C@@H]2CC[C@]2(C)C(=O)CC[C@@H]12` [Dehydroepiandosterone 3-succinate], under setting [5], the ALT was 3.89 ± 1.77 10^3 units/L and the AST is recorded as 10.42 ± 3.36 10^3 units/L. For the same compound, the inhibition in vivo at 100 mg/kg under setting [3] stood at 0%.

With `C[C@]12CC[C@H](OS(=O)(=O)O)CC1=CC[C@@H]1[C@@H]2CC[C@]2(C)C(=O)CC[C@@H]12` [Dehydroepiandosterone 3-sulfate], under setting [4], the ALT is on record as 3.89 ± 0.81 10^3 units/L and the AST is 13.85 ± 0.37 10^3 units/L. The inhibition in vivo at 100 mg/kg under setting [3] amounted to 4%.

On to `CC(C)CCC[C@@H](C)[C@H]1CC[C@H]2[C@@H]3CC[C@H]4C[C@@H](OC(=O)CCC(=O)O)CC[C@]4(C)[C@H]3CC[C@]12C` [Dihydrocholesterol succinate, tris salt], for which, under setting [6], the ALT is on record as 0.09 ± 0.03 10^3 units/L and the AST was 0.19 ± 0.05 10^3 units/L. Besides, the inhibition in vivo at 100 mg/kg under setting [3] is 100%.

As for `CC(C)CCC[C@@H](C)[C@H]1CC[C@H]2[C@@H]3CC[C@H]4C[C@@H](OC(=O)CCC(=O)O)CC[C@]4(C)[C@H]3CC[C@]12C` [Dihydrocholesterol succinate], the “protection” value was “complete protection against hepatotoxicity”. In addition, under setting [7], the ALT was 0.39 ± 0.40 10^3 units/L and the AST was 0.44 ± 0.29 10^3 units/L.

For the compound `CC(C)[C@@H](C)/C=C/[C@@H](C)[C@H]1CC[C@H]2C3=CC=C4C[C@@H](OC(=O)CCC(=O)O)CC[C@]4(C)[C@H]3CC[C@]12C` [Ergosterol succinate, tris salt], the “protection” value is “protection against hepatotoxicity”. Further, under setting [8], the ALT was 0.46 ± 0.25 10^3 units/L and the AST is given as 0.80 ± 0.28 10^3 units/L. Also, the inhibition in vivo at 100 mg/kg under setting [3] was 80%.

For the compound `CC(C)[C@@H](C)/C=C/[C@@H](C)[C@H]1CC[C@H]2C3=CC=C4C[C@@H](OS(=O)(=O)O)CC[C@]4(C)[C@H]3CC[C@]12C` [Ergosterol sulfate, potassium salt], the “protection” value is listed as “protection against hepatotoxicity”. Moreover, under setting [8], the ALT is listed as 0.28 ± 0.37 10^3 units/L and the AST is listed as 0.58 ± 0.53 10^3 units/L. Further, the inhibition in vivo at 100 mg/kg under setting [3] came to 86%.

`CC(C)[C@@H](C)/C=C/[C@@H](C)[C@H]1CC[C@H]2C3=CC=C4C[C@@H](O)CC[C@]4(C)[C@H]3CC[C@]12C` [Ergosterol, reference compound]: the “protection” value is listed as “cytoprotection from toxic CCl4 insults”. Moreover, under setting [8], the ALT is recorded as 0.93 ± 0.48 10^3 units/L and the AST is 1.73 ± 0.58 10^3 units/L. Besides, under setting [5], the ALT was 0.63 ± 0.45 10^3 units/L and the AST is 1.90 ± 0.73 10^3 units/L.

As to `C[C@]12CC[C@@H]3c4ccc(OC(=O)CCC(=O)O)cc4CC[C@H]3[C@@H]1CCC2=O` [Estrone 3-Succinate], the “protection” value is on record as “slight cytoprotection”. Under setting [9], the ALT is on record as 0.51 ± 0.56 10^3 units/L and the AST is given as 1.71 ± 1.00 10^3 units/L. In addition, under setting [10], the ALT is 0.32 ± 0.12 10^3 units/L and the AST is reported as 0.70 ± 0.20 10^3 units/L.

With `CC(=O)Oc1ccc2c(c1)CCC1C2CC[C@]2(C)C(=O)CCC12` (stereo partly drawn) [Estrone Acetate, reference compound], under setting [10], the ALT was 0.18 ± 0.08 10^3 units/L and the AST is reported as 0.53 ± 0.24 10^3 units/L.

For the compound `C[C@]12CC[C@@H]3c4ccc(OS(=O)(=O)O)cc4CC[C@H]3[C@@H]1CCC2=O` [Estrone sulfate, potassium salt], the “protection” value was “slight cytoprotection”. For the setting “ip, 100 mg/kg, 48 h”, the ALT was 0.87 ± 0.59 10^3 units/L and the AST is listed as 4.19 ± 2.75 10^3 units/L.

With `C[C@]12CC[C@@H]3c4ccc(O)cc4CC[C@H]3[C@@H]1CCC2=O` [Estrone, reference compound], under setting [10], the ALT is 0.33 ± 0.30 10^3 units/L and the AST is 0.56 ± 0.45 10^3 units/L.

On to `C[C@]12CCC(=O)C=C1CC[C@@H]1[C@@H]2[C@@H](O)C[C@@]2(C)[C@H]1CC[C@]2(O)C(=O)COC(=O)CCC(=O)O` [Hydrocortisone 21-succinate, reference compound], for which the “protection” value is “no cytoprotection was observed”. Further, under setting [2], the ALT is 1.596 ± 0.887 10^3 units/L and the AST is recorded as 6.18 ± 3.15 10^3 units/L. In addition, the inhibition in vivo at 100 mg/kg under setting [11] was determined as 25%.

In the case of `CCCCCCCCCCCCOS(=O)(=O)[O-].[Na+]` [Lauryl sulfate, sodium salt], the “protection” value is recorded as “generally not protective”. For the same compound, under setting [9], the ALT is 1.40 ± 0.59 10^3 units/L and the AST is 5.00 ± 1.54 10^3 units/L. Moreover, the inhibition in vivo at 100 mg/kg under setting [3] worked out at 26%.

In the case of `CCCCC/C=C\C/C=C\CCCCCCCCO` [Linoleyl alcohol, reference compound], the “protection” value was “potentiates CCl4 toxicity”. Besides, under setting [12], the ALT was 5.45 ± 1.10 10^3 units/L and the AST is recorded as 15.60 ± 2.98 10^3 units/L.

For `CCCCC/C=C\C/C=C\CCCCCCCCOC(=O)CCC(=O)O` [Linoleyl succinate], under setting [12], the ALT is reported as 1.44 ± 0.59 10^3 units/L and the AST is recorded as 4.47 ± 2.21 10^3 units/L. Moreover, under setting [5], the ALT is 1.95 ± 0.84 10^3 units/L and the AST is reported as 5.60 ± 1.30 10^3 units/L. The inhibition in vivo at 100 mg/kg under setting [11] was found to be 46%.

With `CCCCCCCCCCCCCCCCO` [Palmityl Alcohol, reference compound], the “protection” value is on record as “generally not protective”. Moreover, under setting [2], the ALT was 1.840 ± 1.106 10^3 units/L and the AST is reported as 8.70 ± 3.00 10^3 units/L.

Regarding `CCCCCCCCCCCCCCCCOC(=O)CCC(=O)O` [Palmityl succinate], under setting [2], the ALT is recorded as 1.679 ± 0.881 10^3 units/L and the AST was 6.54 ± 3.61 10^3 units/L. The inhibition in vivo at 100 mg/kg under setting [11] was 22%.

With `C/C(=C\COC(=O)CCC(=O)O)CCCC(C)CCCC(C)CCCC(C)C` (stereo not drawn) [Phytol succinate], the “protection” value is “generally not protective”. In addition, under setting [6], the ALT is reported as 1.70 ± 0.18 10^3 units/L and the AST is given as 3.29 ± 0.51 10^3 units/L. The inhibition in vivo at 100 mg/kg under setting [11] stood at 27%.

On to `C/C(=C\CO)CCC[C@H](C)CCC[C@H](C)CCCC(C)C` [Phytol, reference compound], for which the “protection” value is “generally not protective”. For the same compound, under setting [6], the ALT is given as 2.82 ± 0.54 10^3 units/L and the AST was 4.71 ± 1.00 10^3 units/L.

On to `CC1=C(/C=C/C(C)=C/C=C/C(C)=C/C(=O)O)C(C)(C)CCC1` [Retinoic acid, reference compound], for which the “protection” value was “potentiated CCl4 toxicity”. In addition, under setting [13], the ALT is 6.14 ± 0.74 10^3 units/L and the AST is 17.94 ± 0.71 10^3 units/L. In addition, the inhibition in vivo at 50 mg/kg (Rattus norvegicus, 50 mg/kg ip 20 h prior, 48 h after 1 g/kg CCl4, read-out: % Hepatoprotection) is -83%.
